Here are results for 24 compounds from PubChem BioAssay AID330 (DTP/NCI, 2004).

For the test, the system named is P388 leukemia ip, CD2F1 mice, survival T/C. Nature of the test: NCI In Vivo Anticancer Drug Screen. Data for tumor model P388 Leukemia (intraperitoneal) in CD2F1 (CDF1) mice. To be noted: endpoint: median survival time, higher = longer survival. The method in brief:
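Mice carrying the transplanted tumor received test compound or vehicle. Survival was recorded in each group, and the value is the treated-group measurement divided by that of the vehicle-treated control group.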

The mark [1] stands for this setting: dose: 25.0 mg/kg/injection, schedule: Q01DX009 (ip), vehicle: saline with Tween-80.
[2] abbreviates: dose: 50.0 mg/kg/injection, schedule: Q01DX009 (ip), vehicle: saline with Tween-80.
Setting [3] is: dose: 100.0 mg/kg/injection, schedule: Q01DX009 (ip), vehicle: saline with Tween-80.
[4] abbreviates: dose: 200.0 mg/kg/injection, schedule: Q01DX009 (ip), vehicle: saline with Tween-80.
[5] abbreviates: dose: 50.0 mg/kg/injection, schedule: Q01DX009 (ip), vehicle: Klucel (hydroxypropylcellulose) (HPC).
[6] abbreviates: dose: 100.0 mg/kg/injection, schedule: Q01DX009 (ip), vehicle: Klucel (hydroxypropylcellulose) (HPC).
Setting [7] is: dose: 60.0 mg/kg/injection, schedule: Q01DX005 (ip), vehicle: Klucel (hydroxypropylcellulose) (HPC).
The mark [8] stands for this setting: dose: 120.0 mg/kg/injection, schedule: Q01DX005 (ip), vehicle: Klucel (hydroxypropylcellulose) (HPC).
The mark [9] stands for this setting: dose: 240.0 mg/kg/injection, schedule: Q01DX005 (ip), vehicle: Klucel (hydroxypropylcellulose) (HPC).
Setting [10] is: dose: 50.0 mg/kg/injection, schedule: Q01DX005 (ip), vehicle: saline with Tween-80.
Where [11] appears, read: dose: 100.0 mg/kg/injection, schedule: Q01DX005 (ip), vehicle: saline with Tween-80.
Where [12] appears, read: dose: 200.0 mg/kg/injection, schedule: Q01DX005 (ip), vehicle: saline with Tween-80.
Setting [13] is: dose: 15.0 mg/kg/injection, schedule: Q01DX005 (ip), vehicle: saline with Tween-80.

“And” between values parts separate entries of the source, which are not always exact repeats. Equal entries are not always repeated. Inconclusive results and toxic doses are left out.

As to `COC(=O)C1CC2CCCCC2CC1OC(C)=O` (stereo unspecified), the T/C runs as follows: under setting [1], 96 % of control; under setting [2], 101 % of control and 111 % of control; under setting [3], 106 % of control and 112 % of control and 121 % of control; under setting [4], 99 % of control and 110 % of control and 121 % of control.

Take `CCC(/C=C/c1ccc(OC)cc1)=N/Nc1ccccc1`: the T/C (dose: 30.0 mg/kg/injection, schedule: Q01DX005 (ip), vehicle: other) was 109 % of control; the T/C (dose: 60.0 mg/kg/injection, schedule: Q01DX005 (ip), vehicle: other) was 100 % of control; the T/C (dose: 120.0 mg/kg/injection, schedule: Q01DX005 (ip), vehicle: other) is 103 % of control and 109 % of control; the T/C (dose: 240.0 mg/kg/injection, schedule: Q01DX005 (ip), vehicle: other) was 113 % of control.

Regarding `CC1(C)CC(=O)C(CC(=O)c2ccccc2)=C(NN=C(N)N)C1`, the T/C was 101 % of control under setting [5]; 100 % of control under setting [6]; 91 % of control (dose: 200.0 mg/kg/injection, schedule: Q01DX009 (ip), vehicle: Klucel (hydroxypropylcellulose) (HPC)).

Regarding `O=C(SCNS(=O)(=O)c1ccccc1)c1ccccc1`, the T/C by setting is: (dose: 100.0 mg/kg/injection, schedule: Q01DX001 (ip), vehicle: Klucel (hydroxypropylcellulose) (HPC)) 111 % of control; (dose: 200.0 mg/kg/injection, schedule: Q01DX001 (ip), vehicle: Klucel (hydroxypropylcellulose) (HPC)) 113 % of control; (dose: 400.0 mg/kg/injection, schedule: Q01DX001 (ip), vehicle: Klucel (hydroxypropylcellulose) (HPC)) 114 % of control.

Take `OCC1NCCC(O)C1OC1OC(CO)C(O)C(O)C1O` (stereo unspecified): the T/C was 103 % of control (dose: 6.88 mg/kg/injection, schedule: Q01DX005 (ip), vehicle: water); 100 % of control (dose: 13.75 mg/kg/injection, schedule: Q01DX005 (ip), vehicle: water); 100 % of control (dose: 27.5 mg/kg/injection, schedule: Q01DX005 (ip), vehicle: water); 99 % of control (dose: 55.0 mg/kg/injection, schedule: Q01DX005 (ip), vehicle: water).

In the case of `O=C(O)c1cc(O)cc(C(=O)O)c1`, the T/C runs as follows: under setting [1], 99 % of control; under setting [2], 99 % of control; under setting [3], 94 % of control.

For `O=C(NN(c1ccccc1)c1ccccc1)c1ccccc1[N+](=O)[O-]`, the T/C reads like this: under setting [2], 93 % of control; under setting [3], 104 % of control; under setting [4], 93 % of control.

Consider `CC(=O)OC(C(=O)N1CC1)C(OC(C)=O)C(OC(C)=O)C(OC(C)=O)C(=O)N1CC1` (stereo unspecified), for which the T/C is 217 % of control (dose: 25.0 mg/kg/injection, schedule: Q01DX009 (ip), vehicle: Klucel (hydroxypropylcellulose) (HPC)); 237 % of control and 255 % of control under setting [5]; 88 % of control under setting [6].

Regarding `O=C1/C(=C/c2ccc3c(c2)OCO3)SC(=S)N1c1ccc(Cl)c(Cl)c1`, the T/C was 103 % of control (dose: 50.0 mg/kg/injection, schedule: Q01DX005 (ip), vehicle: Klucel (hydroxypropylcellulose) (HPC)) and 100 % of control (dose: 100.0 mg/kg/injection, schedule: Q01DX005 (ip), vehicle: Klucel (hydroxypropylcellulose) (HPC)).

In the case of `COc1ccc(S(=O)(=O)O)cc1N=N/C(=N/Nc1cc(S(=O)(=O)O)ccc1OC)C(=O)Nc1ccccc1`, the T/C is 101 % of control under setting [7], 101 % of control under setting [8] and 105 % of control under setting [9].

Regarding `COCCCCCC(=O)OC`, the T/C by setting is: (dose: 60.0 mg/kg/injection, schedule: Q01DX005 (ip), vehicle: saline) 101 % of control; (dose: 120.0 mg/kg/injection, schedule: Q01DX005 (ip), vehicle: saline) 100 % of control; (dose: 240.0 mg/kg/injection, schedule: Q01DX005 (ip), vehicle: saline) 104 % of control.

As to `c1ccc2c(c1)ccc1c(-c3ccncc3)n[nH]c12`, the T/C by setting is: under setting [2], 99 % of control; under setting [3], 88 % of control; under setting [4], 87 % of control.

In the case of `COc1ccc2c(c1)-c1c3c(cc4ccnc(c14)C2=O)OCO3`, the T/C is, setting by setting: (dose: 2.5 mg/kg/injection, schedule: Q01DX009 (ip), vehicle: saline with Tween-80) 107 % of control; (dose: 5.0 mg/kg/injection, schedule: Q01DX009 (ip), vehicle: saline with Tween-80) 114 % of control; (dose: 10.0 mg/kg/injection, schedule: Q01DX009 (ip), vehicle: saline with Tween-80) 122 % of control.

In the case of `COC(=O)C1C(OCc2ccccc2)C2CCC1(OC)C=C2C` (stereo unspecified), the T/C was 91 % of control (dose: 100.0 mg/kg/injection, schedule: Q04DX002 (ip), vehicle: saline with Tween-80); 98 % of control (dose: 200.0 mg/kg/injection, schedule: Q04DX002 (ip), vehicle: saline with Tween-80); 91 % of control (dose: 400.0 mg/kg/injection, schedule: Q04DX002 (ip), vehicle: saline with Tween-80).

In the case of `OCC1CCCN1` (stereo unspecified), the T/C (dose: 100.0 mg/kg/injection, schedule: Q04DX002 (ip), vehicle: saline) is 102 % of control and the T/C (dose: 200.0 mg/kg/injection, schedule: Q04DX002 (ip), vehicle: saline) was 96 % of control.

On to `O=C1CCCCCOCCOCCOCCOCCOCCCCC1`, for which the T/C is, setting by setting: under setting [10], 104 % of control; under setting [11], 96 % of control; under setting [12], 101 % of control.

`FC(F)(F)C1(C(F)(F)F)OS2(OC1(C(F)(F)F)C(F)(F)F)OC(C(F)(F)F)(C(F)(F)F)C(C(F)(F)F)(C(F)(F)F)O2`: the T/C was 91 % of control (dose: 100.0 mg/kg/injection, schedule: Q04DX003 (ip), vehicle: Klucel (hydroxypropylcellulose) (HPC)); 91 % of control (dose: 200.0 mg/kg/injection, schedule: Q04DX003 (ip), vehicle: Klucel (hydroxypropylcellulose) (HPC)); 105 % of control (dose: 400.0 mg/kg/injection, schedule: Q04DX003 (ip), vehicle: Klucel (hydroxypropylcellulose) (HPC)).

In the case of `C=C1C(=O)OC2C1C(OC(=O)C(C)CC)CC1(O)COC3(O)C1C2C1(C)OC13` (stereo unspecified), the T/C is 106 % of control (dose: 6.25 mg/kg/injection, schedule: Q01DX001 (ip), vehicle: Klucel (hydroxypropylcellulose) (HPC)); 108 % of control (dose: 12.5 mg/kg/injection, schedule: Q01DX001 (ip), vehicle: Klucel (hydroxypropylcellulose) (HPC)); 117 % of control and 90 % of control (dose: 25.0 mg/kg/injection, schedule: Q01DX001 (ip), vehicle: Klucel (hydroxypropylcellulose) (HPC)).

Turning to `S=c1n(-c2ccc(Cl)cc2)c2nc3ccccc3nc(/c2=N\Nc2ccccc2)n1-c1ccc(Br)cc1`, the T/C by setting is: under setting [10], 92 % of control; under setting [11], 105 % of control; under setting [12], 105 % of control.

For `CC1(C)CC(=O)C(=[N+]=[N-])C(=O)C1`, the T/C by setting is: (dose: 7.5 mg/kg/injection, schedule: Q01DX005 (ip), vehicle: saline with Tween-80) 105 % of control; under setting [13], 105 % of control; (dose: 30.0 mg/kg/injection, schedule: Q01DX005 (ip), vehicle: saline with Tween-80) 102 % of control.

With `CNC(=O)OCc1c(COC(=O)NC)c(-c2ccsc2)n2c1CCC2`, the T/C reads like this: under setting [13], 118 % of control; (dose: 60.0 mg/kg/injection, schedule: Q01DX005 (ip), vehicle: saline with Tween-80) 119 % of control and 124 % of control.

On to `COC1C(=O)c2ccccc2N1C(C)=O` (stereo unspecified), for which the T/C under setting [7] is 108 % of control, the T/C under setting [8] was 101 % of control and the T/C under setting [9] is 99 % of control.

For the compound `CCCCn1c(Cl)c(/C=N\Nc2ccc([N+](=O)[O-])cc2[N+](=O)[O-])c2ccccc21`, the T/C is, setting by setting: (dose: 100.0 mg/kg/injection, schedule: Q04DX003 (ip), vehicle: saline with Tween-80) 94 % of control; (dose: 200.0 mg/kg/injection, schedule: Q04DX003 (ip), vehicle: saline with Tween-80) 90 % of control; (dose: 400.0 mg/kg/injection, schedule: Q04DX003 (ip), vehicle: saline with Tween-80) 88 % of control.

`ClCCN(CCCl)c1ccc(/C=N/Nc2c3ccccc3nc3ccccc23)cc1`: the T/C (dose: 6.25 mg/kg/injection, schedule: Q01DX009 (ip), vehicle: DMSO) is 88 % of control and the T/C (dose: 12.5 mg/kg/injection, schedule: Q01DX009 (ip), vehicle: DMSO) is 90 % of control.
